This is an account of results in US10202339B2, “Therapeutic compounds and compositions” (AGIOS PHARMACEUTICALS, INC., priority 2012, dated 2019).

IDH2 R140Q, sequence (P48735 40-452 R140Q): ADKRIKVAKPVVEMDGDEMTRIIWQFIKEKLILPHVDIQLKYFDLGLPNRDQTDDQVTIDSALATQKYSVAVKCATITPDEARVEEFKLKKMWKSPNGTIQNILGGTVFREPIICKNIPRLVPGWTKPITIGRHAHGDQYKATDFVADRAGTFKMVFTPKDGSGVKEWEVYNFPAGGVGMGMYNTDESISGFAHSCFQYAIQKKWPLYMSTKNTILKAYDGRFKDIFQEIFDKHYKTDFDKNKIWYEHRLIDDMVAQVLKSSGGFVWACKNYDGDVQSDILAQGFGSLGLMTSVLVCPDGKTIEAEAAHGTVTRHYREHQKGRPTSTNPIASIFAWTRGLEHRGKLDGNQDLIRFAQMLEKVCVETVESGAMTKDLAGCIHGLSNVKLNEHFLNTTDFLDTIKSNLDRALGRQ
IDH1 R132H, sequence (O75874 whole entry R132H): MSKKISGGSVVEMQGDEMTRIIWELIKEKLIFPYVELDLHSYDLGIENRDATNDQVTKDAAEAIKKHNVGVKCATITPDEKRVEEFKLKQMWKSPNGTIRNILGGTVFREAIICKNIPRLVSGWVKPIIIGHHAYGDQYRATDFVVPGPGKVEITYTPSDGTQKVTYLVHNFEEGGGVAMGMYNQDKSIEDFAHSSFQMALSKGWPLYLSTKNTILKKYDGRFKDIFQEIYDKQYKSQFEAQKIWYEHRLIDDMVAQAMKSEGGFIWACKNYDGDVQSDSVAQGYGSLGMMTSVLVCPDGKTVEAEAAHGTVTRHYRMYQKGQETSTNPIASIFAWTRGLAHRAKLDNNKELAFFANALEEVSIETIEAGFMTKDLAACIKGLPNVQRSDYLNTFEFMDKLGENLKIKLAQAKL

One experiment has as its target IDH1 R132H (Homo sapiens (Human), UniProt O75874, R132H). The experiment is described as follows: In vitro assay for IDH1m (R132H) inhibitors, NADPH depletion with resazurin/resorufin detection. The format is biochemical. The following applies: IDH1 R132H enzyme, 50 minutes at room temperature; read-out: IDH R132H IC50. As to the method:
Assays were conducted in a volume of 76 μl assay buffer (150 mM NaCl, 10 mM MgCl2, 20 mM Tris pH 7.5, 0.03% bovine serum albumin) as follows in a standard 384-well plate: To 25 ul of substrate mix (8 uM NADPH, 2 mM aKG), 1 μl of test compound was added in DMSO. The plate was centrifuged briefly, and then 25 μl of enzyme mix was added (0.2 μg/ml IDH1 R132H) followed by a brief centrifugation and shake at 100 RPM. The reaction was incubated for 50 minutes at room temperature, then 25 μl of detection mix (30 μM resazurin, […]) was added and the mixture further incubated for 5 minutes at room temperature. The conversion of resazurin to resorufin was detected by fluorescent spectroscopy at Ex544 Em590 c/o 590.
Representative compounds of formula (I) set forth in Tables 1 and 2 were tested in this assay and the results are set forth below in Table 4.
With `Cc1ccc(NC(=O)Nc2ccc(Cl)cc2)cc1S(=O)(=O)Nc1ccccc1` [Compound 205], the IC50 was 1 to 10 µM.

For the compound `Cc1ccc(NC(=O)Nc2cccc(C(F)(F)F)c2)cc1S(=O)(=O)Nc1ccccc1` [Compound 206, 2-methyl-N-phenyl-5-(3-(3-(trifluoromethyl)phenyl)ureido)benzenesulfonamide], the IC50 was in the range of 1 to 10 µM.

On to `Cc1ccc(NC(=O)Nc2ccc(C(F)(F)F)cc2)cc1S(=O)(=O)Nc1ccccc1` [Compound 207, 2-methyl-N-phenyl-5-(3-(4-(trifluoromethyl)phenyl)ureido)benzenesulfonamide], for which the IC50 fell in the range of 1 to 10 µM.

Take `Cc1ccc(NC(=O)Nc2ccc(OC(F)(F)F)cc2)cc1S(=O)(=O)Nc1ccccc1` [Compound 208]: the IC50 lay in the range of 1 to 10 µM.

Regarding `Cc1ccc(NC(=O)Nc2ccc(F)c(Cl)c2)cc1S(=O)(=O)Nc1ccccc1` [Compound 209], the IC50 is 1 to 10 µM.

On to `Cc1cc(C)cc(NC(=O)Nc2ccc(C)c(S(=O)(=O)Nc3ccccc3)c2)c1` [Compound 210], for which the IC50 was 1 to 10 µM.

Regarding `C#Cc1cccc(NC(=O)Nc2ccc(C)c(S(=O)(=O)Nc3ccccc3)c2)c1` [Compound 211], the IC50 was 1 to 10 µM.

As for `Cc1ccc(NC(=O)Nc2cccc(Oc3ccccc3)c2)cc1S(=O)(=O)Nc1ccccc1` [Compound 212], the IC50 is 1 to 10 µM.

`Cc1ccc(NC(=O)Nc2ccccc2)cc1S(=O)(=O)Nc1ccc(Cl)cc1` [Compound 213]: the IC50 lay within 1 to 10 µM.

As to `Cc1ccc(NC(=O)Nc2ccccc2Cl)cc1S(=O)(=O)Nc1ccc(Cl)cc1` [Compound 214], the IC50 was in the range of 1 to 10 µM.

For the compound `Cc1ccc(NC(=O)Nc2cccc(Cl)c2)cc1S(=O)(=O)Nc1ccc(Cl)cc1` [Compound 215], the IC50 lay within 1 to 10 µM.

For the compound `Cc1ccc(NC(=O)Nc2ccccc2Br)cc1S(=O)(=O)Nc1ccc(Cl)cc1` [Compound 216], the IC50 was 1 to 10 µM.

In the case of `Cc1ccc(NC(=O)Nc2ccc(Br)cc2)cc1S(=O)(=O)Nc1ccc(Cl)cc1` [Compound 217], the IC50 lay within 1 to 10 µM.

On to `Cc1ccc(NC(=O)Nc2ccccc2F)cc1S(=O)(=O)Nc1ccc(Cl)cc1` [Compound 218], for which the IC50 was in the range of 1 to 10 µM.

Regarding `Cc1ccc(NC(=O)Nc2ccc(F)cc2)cc1S(=O)(=O)Nc1ccc(Cl)cc1` [Compound 219], the IC50 lay in the range of 1 to 10 µM.

For the compound `Cc1ccc(NC(=O)Nc2ccc(I)cc2)cc1S(=O)(=O)Nc1ccc(Cl)cc1` [Compound 220], the IC50 was 1 to 10 µM.

On to `Cc1ccc(NC(=O)Nc2cccc(C(F)(F)F)c2)cc1S(=O)(=O)Nc1ccc(Cl)cc1` [Compound 221, N-(4-chlorophenyl)-2-methyl-5-(3-(3(trifluoromethyl)phenyl)ureido)benzenesulfonamide], for which the IC50 was 1 to 10 µM.

Take `Cc1ccc(NC(=O)Nc2ccc(C(F)(F)F)cc2)cc1S(=O)(=O)Nc1ccc(Cl)cc1` [Compound 222, N-(4-chlorophenyl)-2-methyl-5-(3-(4-(trifluoromethyl)phenyl)ureido)benzenesulfonamide]: the IC50 was in the range of 1 to 10 µM.

Take `Cc1ccc(NC(=O)Nc2ccccc2OC(F)(F)F)cc1S(=O)(=O)Nc1ccc(Cl)cc1` [Compound 224]: the IC50 was 1 to 10 µM.

`Cc1ccc(NC(=O)Nc2ccc(OC(F)(F)F)cc2)cc1S(=O)(=O)Nc1ccc(Cl)cc1` [Compound 225, N-(4-chlorophenyl)-2-methyl-5-(3-(4-(trifluoromethoxy)phenyl)ureido)benzenesulfonamide]: the IC50 was 1 to 10 µM.

Take `Cc1ccc(NC(=O)Nc2ccc(Br)cc2Cl)cc1S(=O)(=O)Nc1ccc(Cl)cc1` [Compound 227]: the IC50 was in the range of 1 to 10 µM.

On to `Cc1ccc(NC(=O)Nc2ccc(F)c(Cl)c2)cc1S(=O)(=O)Nc1ccc(Cl)cc1` [Compound 228], for which the IC50 fell in the range of 1 to 10 µM.

As for `Cc1ccc(NC(=O)Nc2ccc(F)cc2F)cc1S(=O)(=O)Nc1ccc(Cl)cc1` [Compound 229], the IC50 was 1 to 10 µM.

As to `Cc1ccc(NC(=O)Nc2ccc(F)c(F)c2)cc1S(=O)(=O)Nc1ccc(Cl)cc1` [Compound 230], the IC50 lay in the range of 1 to 10 µM.

As for `Cc1ccc(NC(=O)Nc2ccc(C(F)(F)F)cc2Cl)cc1S(=O)(=O)Nc1ccc(Cl)cc1` [Compound 231], the IC50 lay in the range of 1 to 10 µM.

Turning to `Cc1ccc(NC(=O)Nc2ccc(Br)cc2OC(F)(F)F)cc1S(=O)(=O)Nc1ccc(Cl)cc1` [Compound 232], the IC50 is 1 to 10 µM.

With `Cc1ccc(NC(=O)Nc2cc(C(F)(F)F)ccc2F)cc1S(=O)(=O)Nc1ccc(Cl)cc1` [Compound 233], the IC50 lay in the range of 1 to 10 µM.

With `Cc1ccc(NC(=O)Nc2c(C)cccc2Cl)cc1S(=O)(=O)Nc1ccc(Cl)cc1` [Compound 234], the IC50 is 1 to 10 µM.

With `Cc1ccc(NC(=O)Nc2ccc(C)c(S(=O)(=O)Nc3ccc(Cl)cc3)c2)cc1Cl` [Compound 235], the IC50 is 1 to 10 µM.

As to `Cc1cc(Cl)ccc1NC(=O)Nc1ccc(C)c(S(=O)(=O)Nc2ccc(Cl)cc2)c1` [Compound 236], the IC50 fell in the range of 1 to 10 µM.

As for `Cc1cc(NC(=O)Nc2ccc(C)c(S(=O)(=O)Nc3ccc(Cl)cc3)c2)ccc1Br` [Compound 237], the IC50 lay in the range of 1 to 10 µM.

With `Cc1cc(Br)ccc1NC(=O)Nc1ccc(C)c(S(=O)(=O)Nc2ccc(Cl)cc2)c1` [Compound 238], the IC50 lay within 1 to 10 µM.

Turning to `Cc1ccc(NC(=O)Nc2c(C)cc(Br)cc2C)cc1S(=O)(=O)Nc1ccc(Cl)cc1` [Compound 239], the IC50 was 1 to 10 µM.

Turning to `Cc1ccc(F)c(NC(=O)Nc2ccc(C)c(S(=O)(=O)Nc3ccc(Cl)cc3)c2)c1` [Compound 240], the IC50 lay within 1 to 10 µM.

On to `Cc1ccc(F)cc1NC(=O)Nc1ccc(C)c(S(=O)(=O)Nc2ccc(Cl)cc2)c1` [Compound 241], for which the IC50 lay within 1 to 10 µM.

As to `Cc1ccc(NC(=O)Nc2ccc(Cl)c([N+](=O)[O-])c2)cc1S(=O)(=O)Nc1ccc(Cl)cc1` [Compound 242], the IC50 fell in the range of 1 to 10 µM.

`Cc1ccc(NC(=O)Nc2cc(Cl)ccc2[N+](=O)[O-])cc1S(=O)(=O)Nc1ccc(Cl)cc1` [Compound 243]: the IC50 was in the range of 1 to 10 µM.

Regarding `Cc1ccc(NC(=O)Nc2ccc([N+](=O)[O-])cc2Cl)cc1S(=O)(=O)Nc1ccc(Cl)cc1` [Compound 244], the IC50 was 1 to 10 µM.

In the case of `Cc1ccc(NC(=O)Nc2ccc(F)cc2[N+](=O)[O-])cc1S(=O)(=O)Nc1ccc(Cl)cc1` [Compound 245], the IC50 is 1 to 10 µM.

Turning to `Cc1ccc(NC(=O)Nc2cc(Cl)c(Cl)cc2Cl)cc1S(=O)(=O)Nc1ccc(Cl)cc1` [Compound 246], the IC50 was 1 to 10 µM.

Turning to `Cc1ccc(NC(=O)Nc2c(Cl)cc(F)cc2Br)cc1S(=O)(=O)Nc1ccc(Cl)cc1` [Compound 247], the IC50 fell in the range of 1 to 10 µM.

For the next experiment, the target named is IDH2 R140Q (Homo sapiens (Human), UniProt P48735, R140Q). The experiment is described as follows: IDH2 R140Q enzymatic cofactor depletion assay (diaphorase/resazurin). It counts as biochemical. The conditions noted are these: IDH2 R140Q enzyme, one hour preincubation with compound, one hour reaction; read-out: Enz R140Q. The method in brief:
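Enzyme preincubated with compound 1 h at room temperature, then reaction started with 50 μM NADPH and 6.3 mM α-KG and run 1 h at room temperature. Remaining NADPH measured by diaphorase (36 μg/ml)/resazurin (60 μM) stop mix, fluorescence read at Ex544/Em590 after 1 min.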
A general note: Alamar Blue is a resazurin reagent that responds to reducing activity.
Regarding `Cc1nccn1-c1ccc(S(=O)(=O)Nc2ccccc2)cc1NC(=O)Nc1cccc(C(F)(F)F)c1` [Compound 343], the IC50 is 1000 to 10000 nM.

Regarding `O=C(Nc1cccc(C(F)(F)F)c1)Nc1cc(S(=O)(=O)Nc2ccccc2)ccc1-n1cccn1` [Compound 344], the IC50 lay in the range of 1000 to 10000 nM.

For the compound `O=C(Nc1cccc(C(F)(F)F)c1)Nc1cc(S(=O)(=O)NC2CC2)ccc1-n1ccnc1` [Compound 345, N-cyclopropyl-4-(1H-imidazol-1-yl)-3-(3-(3-(trifluoromethyl)phenyl)ureido)benzenesulfonamide], the IC50 is 100 to 1000 nM.

Regarding `O=C(Nc1cccc(C(F)(F)F)c1)Nc1cc(S(=O)(=O)N2CCOCC2)ccc1-n1ccnc1` [Compound 346], the IC50 lay in the range of 1000 to 10000 nM.

Consider `CC(C)N(C)c1ccc(S(=O)(=O)Nc2ccccc2)cc1NC(=O)Nc1cccc(C(F)(F)F)c1` [Compound 347], for which the IC50 was in the range of 1000 to 10000 nM.

Take `O=C(Nc1cccc(C(F)(F)F)c1)Nc1cc(S(=O)(=O)NC2CC2)ccc1N1CCOCC1` [Compound 348, N-cyclopropyl-4-morpholino-3-(3-(3-(trifluoromethyl)phenyl)ureido)benzenesulfonamide]: the IC50 is 1000 to 10000 nM.

With `O=C(Nc1cccc(C(F)(F)F)c1)Nc1cc(S(=O)(=O)NC2CC2)ccc1N1CCCOCC1` [Compound 349, N-cyclopropyl-4-(1,4-oxazepan-4-yl)-3-(3-(3-(trifluoromethyl)phenyl)ureido)benzenesulfonamide], the IC50 lay in the range of 100 to 1000 nM.

As to `O=C(Nc1cccc(C(F)(F)F)c1)Nc1cc(S(=O)(=O)N2CCOCC2)ccc1N1CCOCC1` [Compound 350], the IC50 was in the range of 1000 to 10000 nM.

Turning to `Cc1ccc(NC(=O)Nc2c(Cl)cccc2Cl)cc1S(=O)(=O)Nc1ccc(Cl)cc1` [Compound 352], the IC50 lay within 100 to 1000 nM.

On to `O=C(Nc1cccc(C(F)(F)F)c1)Nc1cc(S(=O)(=O)Nc2ccccc2)ccc1-n1ccnc1` [Compound 354], for which the IC50 lay in the range of 100 to 1000 nM.

With `O=C(Nc1cccc(C(F)(F)F)c1)Nc1cc(S(=O)(=O)NC2CC2)cnc1-n1ccnc1` [Compound 355], the IC50 is 100 to 1000 nM.

Consider `O=C(Nc1cccc(C(F)(F)F)c1)Nc1cc(S(=O)(=O)N2CCOCC2)cnc1N1CCOCC1` [Compound 356], for which the IC50 was 1000 to 10000 nM.

For the compound `O=C(Nc1cccc(C(F)(F)F)c1)Nc1cc(S(=O)(=O)NC2CC2)cnc1N1CCOCC1` [Compound 357], the IC50 was in the range of 1000 to 10000 nM.

For `O=C(Nc1cccc(C(F)(F)F)c1)Nc1cc(S(=O)(=O)NC2CC2)cnc1N1CCCOCC1` [Compound 358], the IC50 lay within 100 to 1000 nM.

With `O=C(Nc1cccc(C(F)(F)F)c1)Nc1cc(S(=O)(=O)Nc2ccccc2)ccc1-c1nccs1` [Compound 359], the IC50 fell in the range of 100 to 1000 nM.
